This note sets out measurements from patent publication US6492365B1, “Microsomal triglyceride transfer protein” (Bristol-Myers Squibb Company, priority 1992, dated 2002).

Broadly, the IC50 is the point on the concentration scale where inhibition reaches its midpoint.

For this assay, the target named is T1, bovine MTP (Bos taurus, UniProt P55156).
T1 construct: with about 50-200 ng purified MTP in the well of a 96-well plate; from tissue; host or cells: bovine liver
T1 sequence (P55156 12-887): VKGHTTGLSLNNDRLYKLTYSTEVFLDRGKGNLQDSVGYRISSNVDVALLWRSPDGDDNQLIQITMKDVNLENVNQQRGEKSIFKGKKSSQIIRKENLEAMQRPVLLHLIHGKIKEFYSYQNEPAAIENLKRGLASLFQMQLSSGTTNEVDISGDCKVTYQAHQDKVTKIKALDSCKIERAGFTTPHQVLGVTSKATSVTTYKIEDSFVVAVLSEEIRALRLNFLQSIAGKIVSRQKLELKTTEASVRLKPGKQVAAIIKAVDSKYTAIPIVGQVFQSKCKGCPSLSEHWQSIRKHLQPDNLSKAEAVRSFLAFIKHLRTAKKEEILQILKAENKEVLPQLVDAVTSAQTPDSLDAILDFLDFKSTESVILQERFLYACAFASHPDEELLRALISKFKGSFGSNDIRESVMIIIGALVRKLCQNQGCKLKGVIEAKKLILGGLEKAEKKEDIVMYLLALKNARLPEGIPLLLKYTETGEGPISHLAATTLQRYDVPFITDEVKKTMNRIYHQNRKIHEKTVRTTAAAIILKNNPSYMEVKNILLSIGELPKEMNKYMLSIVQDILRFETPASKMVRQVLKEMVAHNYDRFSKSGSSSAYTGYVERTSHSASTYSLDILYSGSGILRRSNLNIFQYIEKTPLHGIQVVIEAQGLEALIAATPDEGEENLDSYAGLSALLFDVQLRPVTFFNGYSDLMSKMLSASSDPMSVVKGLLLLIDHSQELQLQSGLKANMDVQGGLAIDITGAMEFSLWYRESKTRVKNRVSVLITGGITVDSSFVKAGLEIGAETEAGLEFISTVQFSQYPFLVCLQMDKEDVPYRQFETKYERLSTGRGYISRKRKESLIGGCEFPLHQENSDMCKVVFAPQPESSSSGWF
T1 sequence (P05307 21-510 partner): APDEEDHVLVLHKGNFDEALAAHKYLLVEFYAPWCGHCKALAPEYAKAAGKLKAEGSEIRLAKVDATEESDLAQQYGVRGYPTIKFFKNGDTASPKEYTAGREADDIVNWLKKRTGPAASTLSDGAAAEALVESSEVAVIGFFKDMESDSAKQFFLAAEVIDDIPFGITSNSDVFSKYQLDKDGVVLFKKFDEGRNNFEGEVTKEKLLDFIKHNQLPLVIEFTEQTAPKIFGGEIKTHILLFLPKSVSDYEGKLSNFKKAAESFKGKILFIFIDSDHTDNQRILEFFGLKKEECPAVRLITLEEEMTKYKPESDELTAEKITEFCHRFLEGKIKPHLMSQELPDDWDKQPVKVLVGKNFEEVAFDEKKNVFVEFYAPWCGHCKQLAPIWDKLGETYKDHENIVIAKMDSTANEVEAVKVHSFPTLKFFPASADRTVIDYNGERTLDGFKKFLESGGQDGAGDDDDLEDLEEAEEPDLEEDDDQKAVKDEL
Briefly: MTP-catalyzed transport of radiolabeled TG from donor SUV to acceptor SUV. It counts as biochemical. The settings on record: for IC50: 30 minutes at 37° C., read-out: IC50 for inhibition of MTP-catalyzed TG transport from donor SUV to acceptor SUV. The procedure:
Compound A was dissolved in DMSO and then diluted into 15/40 buffer. Aliquots were added to a lipid transfer assay to bring the compound to the indicated final concentrations. DMSO concentration in the assay never exceeded 2 μL/600 μL, a concentration that was independently determined to have minimal effect on the assay. MTP-catalyzed lipid transport was measured for 30 minutes at 37° C. TG transfer was calculated and compared to a control assay without inhibitor.
Compound B was dissolved in DMSO and then diluted into 15/40 buffer. Aliquots were added to a lipid transfer assay to bring the compound to the indicated final concentrations. DMSO concentration in the assay never exceeded 2 μL/600 μL, a concentration that was independently determined to have minimal effect on the assay. MTP-catalyzed lipid transport was measured for 30 minutes at 37° C. TG transfer was calculated and compared to a control assay without inhibitor.
TG transfer activity was measured as the protein-stimulated rate of TG transfer from donor SUV to acceptor SUV. To prepare donor and acceptor vesicles, the appropriate lipids in chloroform were mixed in a 16×125 mm borosilicate glass screw cap tube (Fisher Scientific Co., Pittsburg, Pa., Cat. no. 14-933-1A) and then dried under a stream of nitrogen. Two mL 15/40 buffer (15 mM Tris, pH 7.4, 40 mM sodium chloride, 1 mM EDTA, and 0.02% NaN3) were added to the dried lipids (or 100 μL per assay, which ever is the least volume), a stream of nitrogen was blown over the buffer, then the cap was quickly screwed on to trap a nitrogen atmosphere over the lipid suspension. […]
The ^14C-TG and ^3H-PC remaining in the supernatant were quantitated by scintillation counting. TG transfer was calculated by comparing the ratio of ^14C-TG (transferred from the donor membranes to the acceptor membranes) to ^3H-PC (a marker of acceptor vesicle recovery) present in the supernatant following a transfer reaction to the ratio of total donor ^14C-TG to acceptor [^3H]PC in the assay before the transfer reaction. The percentage of ^14C-TG transfer was calculated as follows: [formula] […]

Structures can show the parent of a compound that is named as a salt.

Regarding `O=C1c2ccccc2CN1C1CCN(CCC(c2ccccc2)c2ccccc2)CC1` [compound A, 2-[1-(3,3-diphenylpropyl)-4-piperdinyl]-2,3-dihydro-3-oxo-1H-isoindole hydrochloride], the IC50 was ~1000 nM. Besides, the “decrease of TG transfer” value (at concentrations that inhibited approximately 40% of PC transfer) was “more than 80%”.

As to `COc1ccccc1N1CCN(CC2CC(=O)c3ccc(F)cc3C2)CC1` (stereo not drawn) [compound B, 1-[3-(6-fluoro-1-tetralanyl)methyl]-4-O-methoxyphenyl piperazine], the IC50 was in the range of 4000 to 6000 nM.
